Test results from patent US20220009951A1, “TORSEMIDE PHOSPHATE PRODRUG, PREPARATION METHOD AND COMPOSITION THEREOF” (Shanghai Xunhe Pharmaceutical Technology Co. Ltd., priority 2019, published 2022).
Entries after “also recorded” stand apart in the source; their conditions may differ. Structures can show the parent of a compound that is named as a salt.

Tests used:
Male SD rats = assay: Comparison of diuretic effects (urine output of saline-loaded rats); assay type: in vivo, rat; conditions: 30 mL/kg normal saline intragastrically, drug 10 mg/kg iv, urine collected for 4 h
Description: Comparison of Diuretic Effects:
Male SD rats (body weight 180±20 g) were divided into seven groups randomly, three rats a group, and each rat was administered intragastrically 30 mL/kg normal saline. After intragastric administration of normal saline, except the blank control group, each group was given one drug (10 mg/kg, iv, 1 mg/mL, formulation prescription: 0.5% methylcellulose), and the urination was collected for 4 hours.

[1] = Comparison of water solubility of different forms of samples
[2] = cited from earlier work
[3] = cited from earlier work; remark: listed apart in the source

Compound | Urine output (mL/kg, 4 h) (Male SD rats) | Conclusion (water solubility class) [1] | pKa value [2] | solubility in 0.1 mol/L sodium hydroxide solution ([3]; 0.1 mol/L sodium hydroxide solution) | solubility in water ([3]; water)
Cc1cccc(Nc2ccncc2S(=O)(=O)N(COP(=O)(O)O)C(=O)NC(C)C)c1 [Compound of formula I, N-hydroxymethyl-torsemide phosphate] | 105.4 mL/kg | soluble | – | – | –
Cc1cccc(Nc2ccncc2S(=O)(=O)N(COP(=O)([O-])[O-])C(=O)NC(C)C)c1.[K+].[K+] [Compound of formula Ib, dipotassium N-hydroxymethyl-torsemide phosphate] | 116.8 mL/kg | – | – | – | –
Cc1cccc(Nc2ccncc2S(=O)(=O)N(COP(=O)(O)O)C(=O)NC(C)C)c1 [Compound of formula Id, N-hydroxymethyl-torsemide phosphate tri-n-butylammonium salt] | 105.6 mL/kg | easily soluble | – | – | –
Cc1cccc(Nc2ccncc2S(=O)(=O)N(COP(=O)([O-])[O-])C(=O)NC(C)C)c1.[Na+].[Na+] [Compound of formula Ia, disodium N-hydroxymethyl-torsemide phosphate] | 121.6 mL/kg | – | – | – | –
Cc1cccc(Nc2ccncc2S(=O)(=O)N(COP(=O)(O)O)C(=O)NC(C)C)c1 [Compound of formula Ic, N-hydroxymethyl-torsemide phosphate triethylammonium salt] | 103.4 mL/kg | easily soluble | – | – | –
Cc1cccc(Nc2ccncc2S(=O)(=O)NC(=O)NC(C)C)c1 [Torsemide, 1-[4-(3-methylphenyl)aminopyridin-3-yl]sulfonyl-3-isopropylurea] | 100.3 mL/kg | – | 6.44 | slightly soluble | almost insoluble; also recorded: very slightly soluble
